# Key:
# 3T3 cells = experiment: MTT cell viability assay, 3T3; assay type: cell-based; conditions: Mus musculus, NIH3T3; 3T3, MTT, 24 h
# Description: (§1) The murine Swiss albino fibroblast (3T3), the immortal human keratinocyte (HaCaT), the squamous cell carcinoma (A431), the human epithelial carcinoma (HeLa) and the human breast adenocarcinoma (MCF-7) cell lines were sourced from Celltec UB (Barcelona, Spain). All cells were maintained and grown in DMEM medium (4.5 g/L glucose) supplemented with 10% (v/v) FBS, 2 mM L-glutamine, 100 U/mL penicillin and 100 μg/mL streptomycin at 37 °C, 5% CO2. Cells were routinely cultured in 75 cm^2 culture flasks and were trypsinized using trypsin-EDTA when the cells reached approximately 80%. Cell concentration in the resulting suspension was assessed using the trypan blue assay, which enables direct discrimination between viable (unstained) and non-viable (blue) cells.
# (§2) T3 and HaCaT cells (1 × 10^5 cells/mL), along with A431, HeLa, and MCF-7 cells (5 × 10^4 cells/mL), were cultured at defined seeding densities in the 60 central wells of a 96-well plate. Cells were first incubated for 24 h under standard incubator conditions (5% CO2, 37 °C). After this period, the culture medium was removed, and the cells were incubated for an additional 24 h with their corresponding compound solutions (1 mg/mL) previously diluted in a minimum amount of DMF (dimethylformamide) and then in DMEM medium supplemented with 5% FBS (100 µL) at the required concentration range (20 to 250 µg/mL). Cell viability following exposure to the lactam derivatives was evaluated using two complementary assays: NRU and MTT.
# (§3) Only living cells can reduce the yellow tetrazolium salt 3-(4,5-dimethyl-2-thiazolyl)-2,5-diphenyltetrazolium bromide (MTT) to insoluble purple formazan crystals. After a 24 h incubation of the cells with their corresponding NPs, the medium was removed and 100 µL of MTT (Sigma-Aldrich, St. Louis, MO, USA) in PBS (5 mg/mL) diluted 1:10 in culture medium without phenol red and without FBS (Lonza, Verviers, Belgium) was added to the cells. After 3 h of incubation, the medium was removed. Thereafter, 100 µL of DMSO (Sigma-Aldrich, St. Louis, MO, USA) was added to each well to dissolve the purple formazan crystals. Agitation and absorbance measurements of the extracted solution were carried out under the same conditions described for the NRU assay. The effect of each treatment was then expressed as the percentage of tetrazolium salt reduction by viable cells relative to untreated controls.
# (§4) The half-maximal inhibitory concentration (IC50) values for the different formulations, across cell lines and experimental endpoints, were obtained by fitting the concentration-dependent viability curves. […] These findings reflect the very low cytotoxicity of the compounds toward these cell lines.
# MCF-7 cells = experiment: MTT cell viability assay, MCF-7; assay type: cell-based; conditions: Homo sapiens, MCF7; MCF-7, MTT, 24 h
# Description: as §1, §2, §3, §4
# A431 cells = experiment: NRU cell viability assay, A431; assay type: cell-based, human; conditions: Homo sapiens, A-431, 24 h
# Description: as §1, §2
# The neutral red uptake (NRU) assay is based on the accumulation of dye in the lysosomes of viable cells. After the cells were incubated for 24 h with the corresponding systems, the medium was removed, and the solutions were incubated with the NR dye (Sigma-Aldrich, St. Louis, MO, USA) solution (50 µg/mL) dissolved in the medium, without FBS and without phenol red (Lonza, Verviers, Belgium), for 3 h. Cells were then washed with sterile PBS, followed by the addition of 100 µL of a solution containing 50% absolute ethanol and 1% acetic acid in distilled water to extract the dye. To promote the total dissolution of the dye, plates were placed in a microtiter-plate shaker for 5 min at room temperature. The absorbance of the resulting solutions was measured at 550 nm (Bio-Rad 550 microplate reader, Bio-Rad California, Hercules, CA, USA). Finally, the effect of each treatment was calculated as the percentage of dye uptake by viable cells relative to the control cells (cells without any treatment). Finally, the effect of each treatment was calculated as the percentage of dye retained by viable cells compared with untreated control cells.
# as §4
# Hemolysis assay = assay type: cell-based; conditions: human, human erythrocyte suspension, pH 7.4, 10 and 80 µg/mL
# Description: Human blood samples were obtained from the Banc de Sang i Teixits de Barcelona (Barcelona, Spain) under the Catalan Department of Health. Blood was collected in tubes containing the anticoagulant EDTA-K3. Samples were centrifuged at 3000 rpm and 4 °C for 10 min (Megafuge 2.0 R, Heraeus Instruments, Hanau, Germany) to promote sedimentation, after which plasma was carefully eliminated using a Pasteur pipette. The remaining pellet was washed with PBS (pH 7.4) three times to remove residual leukocytes and platelets while concentrating erythrocytes. After the final wash, the erythrocyte pellet was resuspended in PBS (pH 7.4) at a 1:1 ratio to achieve a final erythrocyte concentration of 8 × 10^9 cells/mL.
# The hemolysis assay is used to evaluate the ability of the tested compounds to disrupt erythrocyte membranes. Stock solutions of each compound were prepared in PBS (pH 7.4) at a concentration of 1 mg/mL. Volumes ranging from 10 to 80 μL were transferred into polystyrene tubes, followed by the addition of 25 µL of the erythrocyte suspension, bringing the total volume to 1 mL. The samples were incubated at room temperature under gentle rotation and subsequently centrifuged at 10,000 rpm for 5 min. The absorbance of the resulting supernatants at 540 nm (Shimadzu UV-160A, Shimadzu, Duisburg, Germany) was measured and compared with that of the positive control (erythrocytes hemolyzed with distilled water) and the negative control (erythrocytes suspension in PBS, pH 7.4).
# The degree of hemolysis was determined using the following equation:Hemolysis (%) = 100 × (Abs − Abs0)/(Abs100 − Abs0) where Abs, Abs0 and Abs100 are the absorbance of the test samples, of the suspension treated with isotonic phosphate–buffered saline (PBS) and of the suspension of complete hemolysis treated with distilled water, respectively.
Structure (SMILES),IC50 (3T3 cells),IC50 (MCF-7 cells),IC50 (A431 cells),hemolysis (Hemolysis assay)
"C[C@@H]1CN([C@@H](C)c2ccccc2)C(=O)C1(Cl)Cl [Compound 3, (R)-3,3-dichloro-4-methyl-1-((S)-1-phenylethyl)pyrrolidin-2-one]",30 µg/mL,193 µg/mL,60.2 µg/mL,< 2%
C[C@H](c1ccccc1)N1C[C@H](C)C(Cl)(Cl)C1=O [Compound 4],94.6 µg/mL,77.8 µg/mL,108 µg/mL,< 2%

# Reference: paper PMC12736018, “Stereoselective Cytotoxicity of Enantiopure 3,3-Dichloro-γ-lactams: Correlating In Vitro Activity with In Vivo Tolerability” (Molecules, 2025)
